Laboratory results from publication PMC11513893, “Discovery of Oral Degraders of the ROS1 Fusion Protein with Potent Activity against Secondary Resistance Mutations” (Journal of Medicinal Chemistry, 2024).

How the values were obtained:
[1] = system: Ba/F3 ROS1 D2033N; test: Antiproliferation assay; type: cell-based; settings: Mus musculus, BaF3; Ba/F3 cells, cell growth inhibition
Excerpt: (§1) To assess targeted degradation of ROS1 fusion proteins, we first established a mouse pro-B cell line Ba/F3 as a model expressing the CD74-ROS1 oncogene or CD74-ROS1 with clinically observed secondary/tertiary mutations. The Ba/F3 cell line is dependent on interleukin-3 for survival and proliferation. Upon transduction of oncogenic ROS1, Ba/F3 cells become independent of interleukin-3 but dependent on the transduced driver gene.
(§2) Ba/F3 immortalized murine bone marrow–derived pro-B cells were obtained from Creative Biogene (Shirley, NY) and cultured in RPMI supplemented with 10% FBS and IL3 (0.5 ng/mL). Ba/F3 cells expressing ROS1 variants were maintained in RPMI supplemented with 10% FBS and puromycin (0.7 mg/mL). […] Each compound was dissolved in DMSO and serially diluted in RPMI for cell culture experiments.
(§3) To assess the 72 h effect of drug treatment on cell proliferation, 2000 to 3000 cells were plated in replicates of three in 96-well plates. The plates were placed in an incubator at 37 °C, 5% CO2 for 72 h. Following drug treatments, the cells were incubated with the Alamar Blue Assay reagent (BioRad), 5 μL each well for 4 h at 37 °C and 5% CO2. Luminescence was measured on a multiplate reader and analyzed. […] IC50 values were determined using a nonlinear regression model with a sigmoidal dose response in GraphPad. The data were collected based on triplicate experiments, and presented as mean ± SD.
(§4) The resulting virus was used to infect Ba/F3 cells. After retroviral infection, Ba/F3 cells were selected by incubation with puromycin (0.7 mg/mL) for 2 weeks. For Ba/F3 cells infected by the CD74–ROS1 variants, IL3 was withdrawn from the culture medium at least 2 weeks before the experiments.

[2] = system: Ba/F3 ROS1 G2032R-F2075V; test: Antiproliferation assay; type: cell-based; settings: Mus musculus, BaF3; Ba/F3 cells, cell growth inhibition
Excerpt: as §1, §2, §3, §4

[3] = system: Ba/F3 ROS1 L2026M; test: Antiproliferation assay; type: cell-based; settings: Mus musculus, BaF3; Ba/F3 cells, cell growth inhibition
Excerpt: as §1, §2, §3, §4

[4] = system: Ba/F3 ROS1-G2032R; test: Antiproliferation assay; type: cell-based, mouse; settings: Mus musculus, BaF3; Ba/F3 cells, cell growth inhibition, 72 h
[5] = system: Ba/F3 ROS1 (CD74) G2032R; test: Antiproliferation assay; type: cell-based; settings: Mus musculus, BaF3; Ba/F3 cell line
Method: (§5) Ba/F3 immortalized murine bone marrow–derived pro-B cells were obtained from Creative Biogene (Shirley, NY) and cultured in RPMI supplemented with 10% FBS and IL3 (0.5 ng/mL). Ba/F3 cells expressing ROS1 variants were maintained in RPMI supplemented with 10% FBS and puromycin (0.7 mg/mL). Crizotinib, ceritinib, brigatinib, repotrectinib, and lorlatinib were purchased from MedChem Express. Each compound was dissolved in DMSO and serially diluted in RPMI for cell culture experiments.
as §3
as §4, with “cDNA encoding CD74-ROS1 or mutant CD74–ROS1 was cloned into retroviral expression vectors (pLenti), and viruses were generated in HEK293T cells by transfecting with packaging plasmids. The” for “The”

[6] = system: Ba/F3 ROS1 (CD74) G2032R-L2086F; test: Antiproliferation assay; type: cell-based; settings: Mus musculus, BaF3; Ba/F3 cell line
Method: as §5, §3
as §4, with “cDNA encoding CD74-ROS1 or mutant CD74–ROS1 was cloned into retroviral expression vectors (pLenti), and viruses were generated in HEK293T cells by transfecting with packaging plasmids. The” for “The”

[7] = system: Ba/F3 ROS1 (CD74) L2086F; test: Antiproliferation assay; type: cell-based; settings: Mus musculus, BaF3; Ba/F3 cell line
Method: as §5, §3
as §4, with “cDNA encoding CD74-ROS1 or mutant CD74–ROS1 was cloned into retroviral expression vectors (pLenti), and viruses were generated in HEK293T cells by transfecting with packaging plasmids. The” for “The”

[8] = system: Ba/F3 ROS1 (CD74) S1986F-L2086F; test: Antiproliferation assay; type: cell-based; settings: Mus musculus, BaF3; Ba/F3 cell line
Method: as §5, §3
as §4, with “cDNA encoding CD74-ROS1 or mutant CD74–ROS1 was cloned into retroviral expression vectors (pLenti), and viruses were generated in HEK293T cells by transfecting with packaging plasmids. The” for “The”

[9] = system: Ba/F3 ROS1 (CD74) S1986F-G2032R-L2086F; test: Antiproliferation assay; type: cell-based; settings: Mus musculus, BaF3; Ba/F3 cell line
Method: as §5, §3
as §4, with “cDNA encoding CD74-ROS1 or mutant CD74–ROS1 was cloned into retroviral expression vectors (pLenti), and viruses were generated in HEK293T cells by transfecting with packaging plasmids. The” for “The”

[10] = system: Ba/F3 ROS1 (CD74) S1986F-G2032R; test: Antiproliferation assay; type: cell-based; settings: Mus musculus, BaF3; Ba/F3 cell line
Method: as §5, §3
as §4, with “cDNA encoding CD74-ROS1 or mutant CD74–ROS1 was cloned into retroviral expression vectors (pLenti), and viruses were generated in HEK293T cells by transfecting with packaging plasmids. The” for “The”

[11] = system: Ba/F3 ROS1 L2086F; test: Antiproliferation assay; type: cell-based; settings: Mus musculus, BaF3; Ba/F3 cells, cell growth inhibition
Excerpt: as §1, with “gene. The Ba/F3 models have been effectively employed in the discovery and preclinical development of next generation ROS1 inhibitors.[11],[14],[15] We have tested ROS1 inhibitors against these Ba/F3 cells to validate their sensitivity and resistance to ROS1 inhibition.” for “gene.”
as §5, §3
as §4, with “cDNA encoding CD74-ROS1 or mutant CD74–ROS1 was cloned into retroviral expression vectors (pLenti), and viruses were generated in HEK293T cells by transfecting with packaging plasmids. The” for “The”

[12] = system: Ba/F3 ROS1 (SLC34A2) F2075C-G1837E; test: Antiproliferation assay; type: cell-based; settings: Mus musculus, BaF3; Ba/F3 cell line
Method: as §5, §3

[13] = system: Ba/F3 ROS1 (SLC34A2) G2032R-D2113G; test: Antiproliferation assay; type: cell-based; settings: Mus musculus, BaF3; Ba/F3 cell line
Method: as §5, §3

[14] = system: Ba/F3 ROS1 (SLC34A2) G2032R-F2075C; test: Antiproliferation assay; type: cell-based; settings: Mus musculus, BaF3; Ba/F3 cell line
Method: as §5, §3

[15] = system: Ba/F3 ROS1 (SLC34A2) L2026M; test: Antiproliferation assay; type: cell-based; settings: Mus musculus, BaF3; Ba/F3 cell line
Method: as §2, §3

[16] = system: Ba/F3 ROS1 (SLC34A2) D2033N; test: Antiproliferation assay; type: cell-based; settings: Mus musculus, BaF3; Ba/F3 cell line
Method: as §2, §3

[17] = system: Ba/F3 ROS1 (SLC34A2) G2032R; test: Antiproliferation assay; type: cell-based; settings: Mus musculus, BaF3; Ba/F3 cell line
Method: as §2, §3

[18] = system: Ba/F3 ROS1 (SLC34A2) V2098I; test: Antiproliferation assay; type: cell-based; settings: Mus musculus, BaF3; Ba/F3 cell line
Method: as §2, §3

[19] = system: Ba/F3 ROS1 (SLC34A2) G2032R-F2075 V; test: Antiproliferation assay; type: cell-based; settings: Mus musculus, BaF3; Ba/F3 cell line
Method: as §2, §3

[20] = system: Ba/F3 CD74-ROS1 non mutant; test: Antiproliferation assay (Alamar Blue, 72 h); type: cell-based, mouse; settings: Mus musculus, BaF3, 72 h, Ba/F3 cells, cell growth inhibition
[21] = system: Ba/F3 cell lines engineered to express the oncogenic ROS1 rearrangement; settings: cited from earlier work
[22] = parameters: method as in PMID 30980071; settings: patients; cited from earlier work
[23] = system: Ba/F3 CD74-ROS1 WT xenograft tumors; test: Mouse efficacy study, Ba/F3 CD74-ROS1 xenograft; type: in vivo; settings: NOD/SCID mice, 30 mg/kg PO qd
Method: (§6) All the procedures related to animal handling, care, and treatment in this study were performed according to guidelines approved by the Institutional Animal Care and Use Committee (IACUC) of Xavier University of Louisiana following the guidance of the AAALAC. Ba/F3-ROS1 and Ba/F3-ROS1-G2032R cells were maintained in RPMI 1640 medium supplemented with 10% fetal bovine serum. The cells growing in an exponential growth phase were harvested and counted for tumor inoculation. Female NOD/SCID mice 6–8 weeks of age were allowed to adapt to laboratory conditions for 10 days prior to dosing and were allowed food and water ad libitum. Each mouse was inoculated subcutaneously in the right flank with Ba/F3 CD74-ROS1 or Ba/F3 SL34A2-ROS1 G2032R cells (1 × 10^6) in 0.2 mL of PBS mixed with Matrigel (50:50) for tumor development.

[24] = system: Ba/F3 SLC34A2-ROS1 G2032R xenograft tumors; test: Mouse efficacy study, Ba/F3 SLC34A2-ROS1 G2032R xenograft; type: in vivo; settings: NOD/SCID mice, 30 mg/kg PO qd
Method: as §6

Row | Structure (SMILES) | IC50 [1] | IC50 [2] | IC50 [3] | IC50 [4] | IC50 [5] | IC50 [6] | IC50 [7] | IC50 [8] | IC50 [9] | IC50 [10] | IC50 [11] | IC50 [12] | IC50 [13] | IC50 [14] | IC50 [15] | IC50 [16] | IC50 [17] | IC50 [19] | also measured
1 | C[C@H]1Oc2cc(cnc2N)-c2c(nn(C)c2C#N)CN(C)C(=O)c2ccc(F)cc21 [lorlatinib] | 7.6 ± 1.3 nM | 233 ± 31 nM | 1 ± 0.4 nM | 338 ± 55 nM | 385 ± 76 nM | > 2000 nM | > 2000 nM | > 2000 nM | > 2000 nM | 503 ± 77.4 nM | > 2000 nM | 0.1 ± 0.1 nM | 142 ± 25.1 nM | > 2000 nM | 1.1 ± 0.2 nM | 7.6 ± 0.5 nM | 244 ± 35.3 nM | 341 ± 75.5 nM | IC50 [18]: 1.5 ± 0.4 nM
2 | COc1cc(N2CCC(N3CCN(C)CC3)CC2)ccc1Nc1ncc(Cl)c(Nc2ccccc2P(C)(C)=O)n1 [brigatinib] | 114 ± 17 nM | 327 ± 43 nM | 48 ± 4 nM | 265 ± 73 nM | 513 ± 118 nM | 694 ± 204 nM | 172 ± 47.6 nM | 329 ± 85.5 nM | > 2000 nM | 488 ± 96.8 nM | 172 ± 24 nM | 8.1 ± 2.2 nM | 215 ± 50.3 nM | 869 ± 148 nM | 47.8 ± 10.2 nM | 114 ± 25.3 nM | 490 ± 38.4 nM | 327 ± 44.8 nM | –
3 | Cc1cc(Nc2ncc(Cl)c(Nc3ccccc3S(=O)(=O)C(C)C)n2)c(OC(C)C)cc1C1CCNCC1 [ceritinib] | 135 ± 27 nM | > 2000 nM | 43 ± 5 nM | 821 ± 148 nM | – | – | – | – | – | – | 215 ± 33 nM | – | – | – | – | – | – | – | IC50 [20]: 14.5 ± 2.2 nM; IC50 [21]: 180 nM
4 | C[C@@H](Oc1cc(-c2cnn(C3CCNCC3)c2)cnc1N)c1c(Cl)ccc(F)c1Cl [crizotinib] | 187 ± 39 nM | > 2000 nM | – | > 2000 nM | – | – | – | – | – | – | 745 ± 88 nM | – | – | – | – | – | – | – | objective response rate [22]: 72%; progression-free survival [22]: 19.2 months; TGI (tumor growth inhibition) [23]: 35%; TGI (tumor growth inhibition) [24]: 7%
